Laboratory results reported in patent publication US10570179B2, “Substituted urea depsipeptide analogs as activators of the CLPP endopeptidase” (priority 2016, dated 2020).
In brackets after ≈: the same amount, converted by molar mass. Like-named read-outs stand apart in the source and are kept apart here. Numbered stars: 1 amine (or outer) side, 2 acyl side, 3 side chain; on linkers, the order of the positions; unused ones are H or OH. Bridge positions count the residues as written; N and C are the ends. Square brackets hold non-standard residues; d marks the D form. Peptide text beside a SMILES is read from it. * marks the point of attachment. Morpholine(3S-CO) = O=C(O)[C@@H]1COCCN1; Phe(3-Me) = Cc1cccc(C[C@H](N)C(=O)O)c1; Pro(4S-Me) = C[C@@H]1CN[C@H](C(=O)O)C1; Pro(4R-Me) = C[C@H]1CN[C@H](C(=O)O)C1; Hyp = O=C(O)[C@@H]1C[C@@H](O)CN1; NH(3-Cl-phenyl) = Clc1cccc(N*)c1; NH(4-Cl-phenyl) = Clc1ccc(N*)cc1; aThr = C[C@H](O)[C@H](N)C(=O)O; Pip = O=C(O)[C@@H]1CCCCN1; CO = O=C([*:1])[*:2]

What was measured:
[1] = biological target: T1, S. aureus ClpP (Sa-ClpP) (Staphylococcus aureus, UniProt Q2G036); assay: Casein-BODIPY digestion assay (ClpP activation); format: biochemical
T1 construct: made in house; host or cells: E. coli BL21 (DE3)
T1 sequence (Q2G036 whole entry): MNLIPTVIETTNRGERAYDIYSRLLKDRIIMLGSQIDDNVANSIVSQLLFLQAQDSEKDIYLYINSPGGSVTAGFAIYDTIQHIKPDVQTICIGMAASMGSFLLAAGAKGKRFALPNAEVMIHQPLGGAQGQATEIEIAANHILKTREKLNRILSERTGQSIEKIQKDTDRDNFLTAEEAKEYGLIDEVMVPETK
Protocol: The compounds were assayed in a casein digestion assay in order to determine their effect on ClpP activation. Briefly, the assay was carried out using S. aureus ClpP (“Sa-ClpP”) overexpressed in E. coli BL21 (DE3) and purified in a two-step process. Purity of the protein was assessed through SDS PAGE analysis. EC50 evaluations were conducted in triplicate in a 20 μl assay format using a method adapted from Maurizi et al. (Methods Enzymol. (1994) 244:314-331). Each well contained 10 μM saClpP, 25 μg/ml BODIPY FL casein (Invitrogen Corporation, San Diego, Calif.), and test compound in concentrations ranging between 0-1000 μM in assay buffer (50 mM Tris pH 8, 200 mM KCl, and 1 mM TCEP). The reaction took place at 37° C. Fluorescence (excitation 485 nm; emission 528 nm) was measured in five minute intervals over a 45 min period using a BioTek HT fluorescence microplate reader (BioTek Instruments, Inc., Winooski, Vt.). Velocity of each reaction was calculated and data was fit to a dose response curve using GraphPad Prism® software (GraphPad Software, Inc., La Jolla, Calif.). EC50 is the effective concentration of compound which causes 50% activation of S. aureus ClpP in the foregoing BODIPY FL casein assay.
Alternatively, the assay was carried out using EnzCheck Protease Assay (Molecular Probes, Catalog # E6638). The assay was performed in black 384 well, flat bottom, low volume plates (Greiner Bio-One, Monroe, N.C., catalog #784076). 10 μL of Tris.HCl buffer, pH 8.0 with 0.01% Triton X-100 was pipetted into each well using a Well-Mate (Thermo Scientific, Waltham, Mass.). 0.4 μL test compounds or controls (2% DMSO v/v) were added to each well using a Biomek FX liquid handling robot (Beckman Coulter, Indianapolis, Ind.). After addition of test compounds and controls, 10 μL of master mix containing 2 μM Sa-ClpP and 2 μM substrate (Bodipy-FL labeled casein) in Tris.HCl buffer, pH 8.0 with 0.01% (v/v) Triton X-100, was pipetted into each well. All assays were performed in triplicate, under linear velocity conditions. Increase in fluorescent signal following activation of Sa-ClpP by test compounds and controls was measured over time period of 30 mins using filters with excitation at 485±15 nm and emission at 520±25 nm on a PHERAstar FS Multilabel reader (BMG, Cary, N.C.). Instrument gains and enzyme linear velocity conditions were determined and validated using ADEP4, a known Sa-ClpP activator. Data analysis was done by measuring rate of casein degradation over time (slopes). Computed degradation rates (slopes) were normalized to positive (ADEP4) or negative (DMSO) controls. Using nonlinear regression curve fitting EC50 values and % activation were determined using the equation “log [agonist] vs. Response-variable slope (four parameters)-symmetrical” in the program Prism 6 (GraphPad Software, La Jolla, Calif. USA, www.graphpad.com).

[2] = system: MRSA NRS70; assay: Minimal inhibitory concentration, microbroth dilution; format: cell-based; settings: Staphylococcus aureus
Protocol: (§1) Minimal inhibitory concentrations (“MICs”) were determined using the microbroth dilution method according to Clinical Laboratory Standards Institute (CLSI; National, C.F. C. L. S., Methods for Dilution Antimicrobial Susceptibility Tests for Bacteria Grow aerobically-Seventh Edition: Approved Standard M7-A7, CLSI, Wayne, Pa., USA, 2008) and were read by visual inspection. Two fold serial dilutions of test compound in 100 μL of the appropriate broth media were first prepared in 96-well round bottom microtiter plates (Nalgene Nunc International, Rochester, N.Y., USA). An equivalent volume (100 μL) of bacterial broth inocula containing approximately 10^5 bacterial cfu/mL was added to each well to give final concentrations of test compound starting at 200 μM. The plates were then incubated aerobically at 37° C. All strains were incubated overnight. After incubations, in all cases the MIC was recorded as the lowest concentration of drug that prevented bacterial growth. The bacterial strains for which MIC was determined as described in Table 4.

[3] = system: E. faecails; assay: as above; format: cell-based; settings: Enterococcus faecalis
Protocol: as §1

[4] = system: S. aureus ATCC 29213; assay: as above; format: cell-based; settings: Staphylococcus aureus
Protocol: as §1

[5] = system: S. aureus USA 300; assay: as above; format: cell-based; settings: Staphylococcus aureus
Protocol: as §1

[6] = system: S. aureus ΔClpP; assay: as above; format: cell-based, Staphylococcus aureus; settings: MIC; ClpP inactivated
Protocol: as §1

[7] = read-out: Minimal Inhibitory Concentrations (μM) MRSA NRS70, MIC
[8] = read-out: Minimal Inhibitory Concentrations (μM) E. faecails, MIC
[9] = ATCC29213, read-out: Minimal Inhibitory Concentrations (μM) S. aureus ATCC 29213, MIC
[10] = USA300, read-out: Minimal Inhibitory Concentrations (μM) S. aureus USA 300, MIC

SMILES | EC50 [1] | MIC [2, 7] | MIC [3, 8] | MIC [4, 9] | MIC [5, 10] | Minimal Inhibitory Concentrations (μM) S. aureus ΔClpP [6] | MIC ([2]; MIC, read-out: Minimal Inhibitory Concentrations (μM) MRSA NRS70) | MIC ([3]; MIC, read-out: Minimal Inhibitory Concentrations (μM) E. faecails) | MIC ([4]; ATCC29213, MIC, read-out: Minimal Inhibitory Concentrations (μM) S. aureus ATCC 29213) | MIC ([5]; USA300, MIC, read-out: Minimal Inhibitory Concentrations (μM) S. aureus USA 300)
Cc1cccc(C[C@H](NC(=O)Nc2cccc(Cl)c2)C(=O)N[C@@H]2C(=O)N3C[C@H](O)C[C@H]3C(=O)N3CCOC[C@H]3C(=O)N[C@@H](C)C(=O)N3C[C@H](C)C[C@H]3C(=O)O[C@H]2C)c1 [Compound 74, (S)-2-(3-(3-CHLOROPHENYL)UREIDO)-N-((6AS,8R,12S,13S,15AS,17R,21S,23AS)-8-HYDROXY-13,17,21-TRIMETHYL-6,11,15,20,23-PENTAOXOOCTADECAHYDRO-6H,11H,15H-[1,4]OXAZINO[3,4-I]DIPYRROLO[2,1-C:2′,1′-L][1]OXA[4,7,10,13]TETRAAZACYCLOHEXADECIN-12-YL)-3-(M-TOLYL)PROPANAMIDE] ({NH(3-Cl-phenyl)-CO}-[Phe(3-Me)][aThr][Hyp][Morpholine(3S-CO)]A[Pro(4R-Me)]; ester 2-C) | 250 ± 100 nM | 5 µM (≈ 4.12 µg/mL) | > 20 µM | 5 µM (≈ 4.12 µg/mL) | 1.25 µM (≈ 1.03 µg/mL) | >20 µM |  |  |  | 
Cc1cccc(C[C@H](NC(=O)Nc2ccc(Cl)cc2)C(=O)N[C@@H]2C(=O)N3CCC[C@H]3C(=O)N3CCCC[C@H]3C(=O)N[C@@H](C)C(=O)N3C[C@H](C)C[C@H]3C(=O)O[C@H]2C)c1 [Compound 63, (S)-2-(3-(4-CHLOROPHENYL)UREIDO)-3-(M-TOLYL)-N-((2R,6S,8AS,14AS,20S,21S,23AS)-2,6,21-TRIMETHYL-5,8,14,19,23-PENTAOXOOCTADECAHYDRO-1H,5H,14H,19H-PYRIDO[2,1-I]DIPYRROLO[2,1-C:2′,1′-L][1]OXA[4,7,10,13]TETRAAZACYCLOHEXADECIN-20-YL)PROPANAMIDE] ({NH(4-Cl-phenyl)-CO}-[Phe(3-Me)][aThr]P[Pip]A[Pro(4R-Me)]; ester 2-C) | 400 ± 200 nM | 0.313 µM (≈ 0.252 µg/mL) | 0.313 µM (≈ 0.252 µg/mL) | 0.625 µM (≈ 0.504 µg/mL) | 0.313 µM (≈ 0.252 µg/mL) | >20 µM |  |  |  | 
Cc1cccc(C[C@H](NC(=O)Nc2ccc(Cl)cc2)C(=O)N[C@@H]2C(=O)N3C[C@H](O)C[C@H]3C(=O)N3CCOC[C@H]3C(=O)N[C@@H](C)C(=O)N3C[C@H](C)C[C@H]3C(=O)O[C@H]2C)c1 [Compound 73, (S)-2-(3-(4-CHLOROPHENYL)UREIDO)-N-((6AS,8R,12S,13S,15AS,17R,21S,23AS)-8-HYDROXY-13,17,21-TRIMETHYL-6,11,15,20,23-PENTAOXOOCTADECAHYDRO-6H,11H,15H-[1,4]OXAZINO[3,4-I]DIPYRROLO[2,1-C:2′,1′-L][1]OXA[4,7,10,13]TETRAAZACYCLOHEXADECIN-12-YL)-3-(M-TOLYL)PROPANAMIDE] ({NH(4-Cl-phenyl)-CO}-[Phe(3-Me)][aThr][Hyp][Morpholine(3S-CO)]A[Pro(4R-Me)]; ester 2-C) | 250 ± 100 nM | 2.5 µM (≈ 2.06 µg/mL) | 0.625 µM (≈ 0.515 µg/mL) | 2.5 µM (≈ 2.06 µg/mL) | 0.625 µM (≈ 0.515 µg/mL) | >20 µM |  |  |  | 
CCc1ccc(NC(=O)N[C@@H](Cc2cccc(C)c2)C(=O)N[C@H]2COC(=O)[C@@H]3C[C@H](C)CN3C(=O)[C@H](C)NC(=O)[C@@H]3CCCCN3C(=O)[C@@H]3CCCN3C2=O)cc1 [Compound 52, (S)—N-((2S,6S,8AS,14AS,20S,23AS)-2,6-DIMETHYL-5,8,14,19,23-PENTAOXOOCTADECAHYDRO-1H,5H,14H,19H-PYRIDO[2,1-I]DIPYRROLO[2,1-C:2′,1′-L][1]OXA[4,7,10,13]TETRAAZACYCLOHEXADECIN-20-YL)-2-(3-(4-ETHYLPHENYL)UREIDO)-3-(M-TOLYL)PROPANAMIDE] | 220 ± 100 nM |  |  |  |  | >20 µM | 0.313 µM (≈ 0.246 µg/mL) | 0.313 µM (≈ 0.246 µg/mL) | 0.625 µM (≈ 0.491 µg/mL) | 0.625 µM (≈ 0.491 µg/mL)
Cc1cccc(C[C@H](NC(=O)Nc2cccc(Cl)c2)C(=O)N[C@@H]2C(=O)N3C[C@H](O)C[C@H]3C(=O)N3CCCC[C@H]3C(=O)N[C@@H](C)C(=O)N3C[C@@H](C)C[C@H]3C(=O)O[C@H]2C)c1 [Compound 67, (S)-2-(3-(3-CHLOROPHENYL)UREIDO)-N-((2S,6S,8AS,14AS,16R,20S,21S,23AS)-16-HYDROXY-2,6,21-TRIMETHYL-5,8,14,19,23-PENTAOXOOCTADECAHYDRO-1H,5H,14H,19H-PYRIDO[2,1-I]DIPYRROLO[2,1-C:2′,1′-L][1]OXA[4,7,10,13]TETRAAZACYCLOHEXADECIN-20-YL)-3-(M-TOLYL)PROPANAMIDE] ({NH(3-Cl-phenyl)-CO}-[Phe(3-Me)][aThr][Hyp][Pip]A[Pro(4S-Me)]; ester 2-C) | 440 ± 300 nM | 2.5 µM (≈ 2.06 µg/mL) | 5 µM (≈ 4.11 µg/mL) | 2.5 µM (≈ 2.06 µg/mL) | 2.5 µM (≈ 2.06 µg/mL) | >20 µM |  |  |  | 
Cc1cccc(C[C@H](NC(=O)Nc2ccc(Cl)cc2)C(=O)N[C@@H]2C(=O)N3C[C@H](O)C[C@H]3C(=O)N3CCCC[C@H]3C(=O)N[C@@H](C)C(=O)N3C[C@H](C)C[C@H]3C(=O)O[C@H]2C)c1 [Compound 61, (S)-2-(3-(4-CHLOROPHENYL)UREIDO)-N-((2R,6S,8AS,14AS,16R,20S,21S,23AS)-16-HYDROXY-2,6,21-TRIMETHYL-5,8,14,19,23-PENTAOXOOCTADECAHYDRO-1H,5H,14H,19H-PYRIDO[2,1-I]DIPYRROLO[2,1-C:2′,1′-L][1]OXA[4,7,10,13]TETRAAZACYCLOHEXADECIN-20-YL)-3-(M-TOLYL)PROPANAMIDE] ({NH(4-Cl-phenyl)-CO}-[Phe(3-Me)][aThr][Hyp][Pip]A[Pro(4R-Me)]; ester 2-C) | 270 ± 100 nM | 0.156 µM (≈ 0.128 µg/mL) | 2.5 µM (≈ 2.06 µg/mL) | 0.156 µM (≈ 0.128 µg/mL) | 0.156 µM (≈ 0.128 µg/mL) | >20 µM |  |  |  | 
Cc1cccc(C[C@H](NC(=O)Nc2cccc(Cl)c2)C(=O)N[C@H]2COC(=O)[C@@H]3CCCN3C(=O)[C@H](C)NC(=O)[C@@H]3CCCCN3C(=O)[C@@H]3C[C@@H](O)CN3C2=O)c1 [Compound 57, (S)-2-(3-(3-CHLOROPHENYL)UREIDO)-N-((6S,8AS,14AS,16R,20S,23AS)-16-HYDROXY-6-METHYL-5,8,14,19,23-PENTAOXOOCTADECAHYDRO-1H,5H,14H,19H-PYRIDO[2,1-I]DIPYRROLO[2,1-C:2′,1′-L][1]OXA[4,7,10,13]TETRAAZACYCLOHEXADECIN-20-YL)-3-(M-TOLYL)PROPANAMIDE] | 1880 ± 2400 nM | 10 µM (≈ 7.94 µg/mL) | 10 µM (≈ 7.94 µg/mL) | 20 µM (≈ 15.9 µg/mL) | 10 µM (≈ 7.94 µg/mL) | >20 µM |  |  |  | 
